The subject of data set [1] is RAW264.7. The data set is described as follows: cells. To be noted: Mus musculus.
Data set [2] relates to RAW264.7. The data set is described as follows: cells. To be noted: Mus musculus. This is another data set of the same source.
A short description of data set [3]: in vitro. Particulars: mouse, RAW264.7 cells; at 0.5 µg/mL.
Data set [4] is described as follows: in vitro. Particulars: mouse, RAW264.7 cells.
The nature of data set [5]: in vitro. To be noted: mouse, RAW264.7 cells; at 32 µg/mL.
Data set [6] in a line: in vitro. Particulars: mouse, RAW264.7 cells; at 8 µg/mL.
Data set [7] in a line: in vitro. To be noted: mouse, RAW264.7 cells; at 2 µg/mL.
The subject of data set [8] is RAW264.7. The data set is described as follows: cells. Particulars: Mus musculus. The source holds these as a separate data set.
A further data set has as its target T1, Prostaglandin E synthase (Homo sapiens, UniProt O14684).
T1 sequence (O14684 whole entry): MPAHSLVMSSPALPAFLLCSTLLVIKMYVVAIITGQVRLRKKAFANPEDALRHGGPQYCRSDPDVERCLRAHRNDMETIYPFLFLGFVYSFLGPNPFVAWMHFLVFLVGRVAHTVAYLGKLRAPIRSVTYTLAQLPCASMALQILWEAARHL

A word on the IC50: it is the concentration that gives 50% inhibition. The low end stands for inhibition by little substance, the high end for a need for much substance. What is called viability is the share of living cells, or the viability signal relative to a control. In general, Ki refers to a measure of affinity in units of concentration, obtained from inhibition or displacement.

Values joined by “and” are separate entries in the source; they are usually repeats but may differ in a detail not shown here. Equal entries are not always repeated.

As to `CCCCc1cc2c(o1)C(=O)c1ccccc1C2=O`, the half-maximal inhibitory concentration (IC50) in the data set with RAW264.7 [1] and in the data set with RAW264.7 [2] was > 2.9 µM in each case.

In the case of `O=C1C2=C(C(=O)c3ccccc31)[C@@H](c1ccccc1F)[C@H](C(=O)c1ccccc1)O2`, the viability at 0.5 ug/mL in the data set “in vitro [3]” amounted to 81%. For the same compound, the viability at 128 ug/mL in “in vitro [4]” stood at 0%. For the same compound, the viability at 32 ug/mL in “in vitro [5]” was 15%. Moreover, the viability at 8 ug/mL in the data set “in vitro [6]” turned out to be 20%. For the same compound, the viability at 2 ug/mL in “in vitro [7]” was 32%.

Compound `O=C1C2=C(C(=O)c3ccccc31)[C@@H](c1ccc(F)cc1)[C@H](C(=O)c1ccccc1)O2` displayed a viability at 0.5 ug/mL in “in vitro [3]” of 100%. In “in vitro [4]”, this compound displayed a viability at 128 ug/mL of 2%. In addition, the half-maximal inhibitory concentration (IC50) with RAW264.7 [8] is 15.8 µM and 6.28 µg/mL. Also, the viability at 32 ug/mL in “in vitro [5]” is 33%. This compound also displayed a viability at 8 ug/mL in the data set “in vitro [6]” of 69%. This compound showed a viability at 2 ug/mL in the data set “in vitro [7]” of 100%.

In the case of `O=C1C2=C(C(=O)c3ccccc31)[C@@H](c1ccc(OC(F)F)c(O)c1)[C@H](C(=O)c1ccccc1)O2`, the viability at 0.5 ug/mL in “in vitro [3]” was found to be 71%. The compound further came in with a viability at 128 ug/mL in “in vitro [4]” of 2%. In addition, the viability at 32 ug/mL in “in vitro [5]” is 5%. In “in vitro [6]”, this compound displayed a viability at 8 ug/mL of 15%. This compound also displayed a viability at 2 ug/mL in “in vitro [7]” of 46%.

Take `COc1c(F)cc([C@@H]2C3=C(O[C@H]2C(=O)c2ccccc2)C(=O)c2ccccc2C3=O)cc1F`: in “in vitro [3]”, the viability at 0.5 ug/mL came to 85%. The viability at 128 ug/mL in “in vitro [4]” was 22%. The IC50 in the data set on RAW264.7 [8] was 3.52 µM and 1.57 µg/mL. For the same compound, the viability at 32 ug/mL in “in vitro [5]” amounted to 51%. Besides, in “in vitro [6]”, the viability at 8 ug/mL came out at 64%. In “in vitro [7]”, the viability at 2 ug/mL was 67%.

Compound `COc1ccc([C@@H]2C3=C(O[C@H]2C(=O)c2ccccc2)C(=O)c2ccccc2C3=O)cc1F` gave a viability at 0.5 ug/mL in the data set “in vitro [3]” of 71%. The viability at 128 ug/mL in “in vitro [4]” worked out at 38%. Besides, in the data set on RAW264.7 [8], the IC50 was 1.54 µM and 0.66 µg/mL. In “in vitro [5]”, this compound came in with a viability at 32 ug/mL of 41%. For the same compound, the viability at 8 ug/mL in the data set “in vitro [6]” was 51%. Further, on Prostaglandin E synthase, the affinity corresponds to a Ki of 241 µM. In “in vitro [7]”, this compound yielded a viability at 2 ug/mL of 60%.

In the data set “in vitro [3]”, `O=C1C2=C(C(=O)c3ccccc31)[C@@H](c1ccc(OC(F)(F)F)cc1)[C@H](C(=O)c1ccccc1)O2` showed a viability at 0.5 ug/mL of 100%. In “in vitro [4]”, this compound registered a viability at 128 ug/mL of 34%. Besides, in the data set with RAW264.7 [8], the IC50 was > 276 µM and > 128 µg/mL. The same compound registered a viability at 32 ug/mL in the data set “in vitro [5]” of 70%. The same compound yielded a viability at 8 ug/mL in the data set “in vitro [6]” of 100%. This compound returned a viability at 2 ug/mL in the data set “in vitro [7]” of 100%.

In turn, `COc1ccc([C@@H]2C3=C(O[C@H]2C(=O)c2ccccc2)C(=O)c2ccccc2C3=O)c(C(F)(F)F)c1` came in with a viability at 0.5 ug/mL in the data set “in vitro [3]” of 100%. Also, the viability at 128 ug/mL in “in vitro [4]” was 40%. Besides, the IC50 with RAW264.7 [8] was > 268 µM and > 128 µg/mL. Further, the viability at 32 ug/mL in “in vitro [5]” was 100%. Besides, the viability at 8 ug/mL in “in vitro [6]” was found to be 100%. Besides, in the data set “in vitro [7]”, the viability at 2 ug/mL turned out to be 100%.

On to `COc1ccc([C@@H]2C3=C(O[C@H]2C(=O)c2ccccc2)C(=O)c2ccccc2C3=O)c(F)c1`, for which the viability at 0.5 ug/mL in the data set “in vitro [3]” amounted to 100%. This compound also registered a viability at 128 ug/mL in the data set “in vitro [4]” of 23%. Also, the viability at 32 ug/mL in “in vitro [5]” came out at 35%. In the data set “in vitro [6]”, this compound displayed a viability at 8 ug/mL of 38%. The viability at 2 ug/mL in “in vitro [7]” came out at 40%.

For `O=C1C2=C(C(=O)c3ccccc31)[C@@H](c1ccc(Oc3ccc(F)cc3)cc1)[C@H](C(=O)c1ccccc1)O2`, in “in vitro [3]”, the viability at 0.5 ug/mL turned out to be 100%. The viability at 128 ug/mL in the data set “in vitro [4]” was found to be 29%. In addition, the concentration for half-maximal inhibition (IC50) in the data set on RAW264.7 [8] is 222 µM and 109 µg/mL. The compound also yielded a viability at 32 ug/mL in “in vitro [5]” of 99%. This compound came in with a viability at 8 ug/mL in “in vitro [6]” of 99%. Besides, in the data set “in vitro [7]”, the viability at 2 ug/mL was found to be 99%.

Consider `CCc1cc2c(o1)C(=O)c1ccccc1C2=O`, for which the IC50 with RAW264.7 [1] and in the data set on RAW264.7 [2] was > 2.9 µM throughout.

With `Cc1cc2c(o1)C(=O)c1ccccc1C2=O`, the IC50 in the data set with RAW264.7 [1] and with RAW264.7 [2] was < 2.9 µM each time.

With `O=C1C2=C(C(=O)c3ccccc31)[C@@H](c1ccc(O)c(F)c1)[C@H](C(=O)c1ccccc1)O2`, in “in vitro [3]”, the viability at 0.5 ug/mL came out at 99%. The viability at 128 ug/mL in “in vitro [4]” is 4%. In the data set “in vitro [5]”, this compound registered a viability at 32 ug/mL of 10%. This compound displayed a viability at 8 ug/mL in “in vitro [6]” of 41%. The viability at 2 ug/mL in the data set “in vitro [7]” amounted to 45%.

In the case of `COc1cc(F)c([C@@H]2C3=C(O[C@H]2C(=O)c2ccccc2)C(=O)c2ccccc2C3=O)cc1F`, the viability at 0.5 ug/mL in “in vitro [3]” was 91%. The same compound yielded a viability at 128 ug/mL in “in vitro [4]” of 15%. For the same compound, the IC50 in the data set on RAW264.7 [8] is 3.92 µM and 1.75 µg/mL. The compound further came in with a viability at 32 ug/mL in the data set “in vitro [5]” of 16%. For the same compound, the viability at 8 ug/mL in the data set “in vitro [6]” worked out at 59%. This compound gave an inhibition constant Ki on Prostaglandin E synthase of 184 µM. Further, in the data set “in vitro [7]”, the viability at 2 ug/mL was 60%.

On to `O=C1C2=C(C(=O)c3ccccc31)[C@@H](c1ccc(O)cc1F)[C@H](C(=O)c1ccccc1)O2`, for which the viability at 0.5 ug/mL in “in vitro [3]” turned out to be 29%. In addition, in “in vitro [4]”, the viability at 128 ug/mL stood at 3%. This compound also showed a viability at 32 ug/mL in “in vitro [5]” of 15%. The viability at 8 ug/mL in the data set “in vitro [6]” came to 19%. This compound also showed a viability at 2 ug/mL in the data set “in vitro [7]” of 22%.

The values above are taken from ChEMBL document CHEMBL5625274, “Improved synthesis, molecular modeling and anti-inflammatory activity of new fluorinated dihydrofurano-naphthoquinone compounds” (Bioorg Med Chem Lett, 2024).
